Peptide text beside a SMILES is read from it.
Conditions: 37° C., 2 hours
Method: 10 μL of the resultant dipeptide solution was mixed with 4 μL of blood plasma or 4 μL of water, and was incubated at 37° C. for 2 hours. The mixture solution after incubation was applied to a TLC plate (manufactured by Merck Ltd.), and developed with a solution containing butanol (Kishida Chemical Co., Ltd.), acetic acid (Kishida Chemical Co., Ltd.) and water in a ratio of 2:1:1. A 1% ninhydrin solution was sprayed onto the mixture, which was then incubated at 80° C. for 5 minutes. Incidentally, the 1% ninhydrin solution was prepared by dissolving ninhydrin (Wako Pure Chemical Industries, Ltd.) in ethanol (Kishida Chemical Co., Ltd.).

Compound | TLC spots when mixed with water
CC[C@H](C)[C@H](NC(=O)[C@H](C)N)C(=O)O [Alanyl-Isoleucine, alanyl-isoleucine] (H-Ala-Ile-OH) | single spot alone
CC(C)C[C@H](NC(=O)[C@H](C)N)C(=O)O [Alanyl-Leucine, alanyl-leucine] (H-Ala-Leu-OH) | single spot alone
CC(C)[C@H](NC(=O)[C@H](C)N)C(=O)O [Alanyl-Valine, alanyl-valine] (H-Ala-Val-OH) | single spot alone

From US7846902B2, “Dipeptide-comprising composition for oral administration” (Kyowa Hakko Bio Co., Ltd., priority 2005, dated 2010)
